Holding throughout (format): cell-based
For assay [1], the system named is RSV strain A2. In words: RSV HEp-2 EC50 (infectious cytopathic cell protection assay). The following applies: read-out: RSV HEp-2 EC50. An outline of the steps:
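Percent inhibition of RSV-induced cytopathic effect came from remaining cell viability (CellTiter-Glo luminescence) after 4 days at 37° C. Compounds in 3-fold serial dilutions were exposed to an infectious mix of titered A2 virus and HEp-2 cells at 50,000/ml, with 0% and 100% inhibition control standards.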
(In general: Damage to the host cells serves as the signal in cytopathic effect assays.)

Assay [2] relates to RSV A2. In words: RSV NHBE EC50 (RSV A2 antiviral assay in normal human bronchial epithelial cells). The following applies: read-out: RSV NHBE EC50.
For assay [3], the system named is HRV16. Description: HRV16 HELA EC50 (cytopathic effect in H1-HeLa cells). An outline of the steps: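 Read-out is luminescent cell viability (CellTiter-Glo) after 96 h of infection at 33 °C, scaled between uninfected and infected-untreated wells. Before infection with titrated virus, compounds went onto H1-HeLa cells as triplicate 3-fold dilution series.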
Assay [4] concerns DENV2 replicon. In words: DENV-2 Huh-7 Rep EC50 (replicon luminescence). To be noted: read-out: DENV-2 Huh-7 Rep EC50. An outline of the steps: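 EC50 derived from luminescence dose-response, normalised to DMSO-only 0% inhibition wells, after 1.5 h with EnduRen substrate. Compounds were first exposed for 48 h at 37° C to DENV2 replicon Huh-7 cells (5,000/well).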
A general note: In antiviral work, replicon cells carry a viral genome segment that copies itself.

[5] abbreviates: H1-HeLa cells, 96 h, 33° C.; read-out: HRV16 HELA EC50.
The mark [6] stands for this setting: human respiratory syncytial virus, 96 h, HEp-2 cells, RSV A2, 4 days.
The mark [7] stands for this setting: human respiratory syncytial virus, 96 h, NHBE cells, RSV A2, 4 days.
[8] abbreviates: Dengue virus, DENV2, Huh-7, 48 h.
The mark [9] stands for this setting: human respiratory syncytial virus, HEp-2, 96 h, HEp-2 cells, RSV A2, 4 days.
Where [10] appears, read: human respiratory syncytial virus, NHBE, 96 h, NHBE cells, RSV A2, 4 days.
[11] abbreviates: 96 h, H1-HeLa cells, 33° C., read-out: HRV16 HELA EC50.
The mark [12] stands for this setting: Dengue virus, DENV2, Huh-7, 48 h, Huh-7 replicon cells, 48 hours.

The values that follow come from US20230295201A1 (Gilead Sciences, Inc., priority 2020, published 2023).

Like-named read-outs stand apart in the source and are kept apart here.

As usually defined, the EC50 is the concentration needed to bring the measured effect to its halfway point. Turning to `CC[C@H](N[P@](=O)(OC[C@@]1(C#N)O[C@@H](c2ccc3c(N)ncnn23)[C@H](O)[C@@H]1O)Oc1ccccc1)C(=O)OCC(C)(C)C` [Example 159], the EC50 is 0.22 µM in assay [1] (HEp-2 cells, RSV A2, 4 days); 0.489 µM in assay [2] (NHBE cells, RSV A2, 4 days); 1.28 µM in assay [3] (setting [5]); over 50 µM in assay [4] (Huh-7 replicon cells, 48 hours).
In the case of `C[C@H](NP(=O)(OCC(F)(F)F)OC[C@@]1(C#N)O[C@@H](c2ccc3c(N)ncnn23)[C@H](O)[C@@H]1O)C(=O)OC1CCCCC1` (stereo partly drawn) [Example 201, cyclohexyl ((((2R,3S,4R,5S)-5-(4-aminopyrrolo[2,1-f][1,2,4]triazin-7-yl)-2-cyano-3,4-dihydroxytetrahydrofuran-2-yl)methoxy)(2,2,2-trifluoroethoxy)phosphoryl)-L-alaninate], the EC50 in assay [1] (setting [6]) was 2.52 µM; in assay [2] (setting [7]) it was 3.1 µM; in assay [3] (setting [5]) it was 10.3 µM; in assay [4] (setting [8]), over 50 µM.
Take `CCC(CC)COC(=O)[C@H](C)OP(=O)(OC[C@@]1(C#N)O[C@@H](c2ccc3c(N)ncnn23)[C@H](O)[C@@H]1O)Oc1ccccc1` (stereo partly drawn) [Example 244, 2-ethylbutyl (2S)-2-(((((2R,3S,4R,5S)-5-(4-aminopyrrolo [2,1-f][1,2,4]triazin-7-yl)-2-cyano-3,4-dihydroxytetrahydrofuran-2-yl)methoxy)(phenoxy)phosphoryl)oxy)propanoate]: the EC50 in assay [1] (human respiratory syncytial virus, HEp-2, 96 h) was 4.95 µM; in assay [2] (human respiratory syncytial virus, NHBE, 96 h), over 5 µM; in assay [3] (96 h, read-out: HRV16 HELA EC50), 33.6 µM; in assay [4] (setting [8]) it was 36.7 µM.
Take `C[C@H](N[P@](=O)(OC[C@@]1(C#N)O[C@@H](c2ccc3c(N)ncnn23)[C@@H]2OC(=O)O[C@@H]21)Oc1ccccc1)C(=O)OC1CCCCC1` [Example 168, cyclohexyl ((S)-(((3aS,4R,6S,6aS)-6-(4-aminopyrrolo[2,1-f][1,2,4]triazin-7-yl)-4-cyano-2-oxotetrahydrofuro[3,4-d][1,3]dioxol-4-yl)methoxy)(phenoxy)phosphoryl)-L-alaninate]: the EC50 in assay [1] (setting [9]) is 0.053 µM; in assay [2] (setting [10]), 0.103 µM; in assay [3] (setting [11]), 0.16 µM; in assay [4] (setting [12]), 4.67 µM.
The corresponding values for `C[C@H](NP(=O)(OC[C@@]1(C#N)O[C@@H](c2ccc3c(N)ncnn23)[C@H](O)[C@@H]1O)Oc1ccccc1)C(=O)OCC(CO)CO` (stereo partly drawn) [Example 245, 3-hydroxy-2-(hydroxymethyl)propyl ((((2R,3S,4R,5S)-5-(4-aminopyrrolo[2,1-f][1,2,4]triazin-7-yl)-2-cyano-3,4-dihydroxytetrahydrofuran-2-yl)methoxy)(phenoxy)phosphoryl)-L-alaninate] are 3.79 µM, over 5 µM, 29 µM and over 50 µM.
Regarding `CCCC(=O)Nc1ncnn2c([C@@H]3O[C@](C#N)(CO[P@@](=O)(N[C@@H](C)C(=O)OC4CCCCC4)Oc4ccccc4)[C@@H](O)[C@H]3O)ccc12` [Example 231, Cyclohexyl ((S)-(((2R,3S,4R,5S)-5-(4-butyramidopyrrolo[2,1-f][1,2,4]triazin-7-yl)-2-cyano-3,4-dihydroxytetrahydrofuran-2-yl)methoxy)(phenoxy)phosphoryl)-L-alaninate], the 50% effective concentration (EC50) in assay [1] (setting [9]) was 0.152 µM; in assay [2] (setting [10]), 0.19 µM; in assay [3] (setting [11]) it was 1.2 µM; in assay [4] (setting [12]), 14.7 µM.
For the compound `C[C@H](NP(=O)(OC[C@@]1(C#N)O[C@@H](c2ccc3c(N)ncnn23)[C@H](O)[C@@H]1O)Oc1ccccc1)C(=O)O[C@H]1CCNC1` (stereo partly drawn) [Example 122, (2S)—(S)-pyrrolidin-3-yl 2-(((((2R,3S,4R,5S)-5-(4-aminopyrrolo[2,1-f][1,2,4]triazin-7-yl)-2-cyano-3,4-dihydroxytetrahydrofuran-2-yl)methoxy)(phenoxy)phosphoryl)amino)propanoate], the EC50 in assay [1] (setting [9]) is 4.04 µM; in assay [2] (setting [10]), over 5 µM; in assay [3] (setting [11]) it was 29.3 µM; in assay [4] (setting [12]), over 50 µM.
As to `CC(C)COC(=O)OCCNP(=O)(OC[C@@]1(C#N)O[C@@H](c2ccc3c(N)ncnn23)[C@H](O)[C@@H]1O)Oc1ccccc1` (stereo partly drawn) [Example 177, 2-(((((2R,3S,4R,5S)-5-(4-aminopyrrolo[2,1-f][1,2,4]triazin-7-yl)-2-cyano-3,4-dihydroxytetrahydrofuran-2-yl)methoxy)(phenoxy)phosphoryl)amino)ethyl isobutyl carbonate], the half-maximal effective concentration (EC50) is 0.104 µM in assay [1] (setting [9]), 1.56 µM in assay [2] (setting [10]), 1.16 µM in assay [3] (setting [11]) and over 50 µM in assay [4] (setting [12]).
With `CCC(CC)COC(=O)[C@H](CCCCN)NP(=O)(OC[C@@]1(C#N)O[C@@H](c2ccc3c(N)ncnn23)[C@H](O)[C@@H]1O)Oc1ccccc1` (mixture of isomers) [Example 91, (2S)-2-ethylbutyl 6-amino-2-(((((2R,3S,4R,5S)-5-(4-aminopyrrolo[2,1-f][1,2,4]triazin-7-yl)-2-cyano-3,4-dihydroxytetrahydrofuran-2-yl)methoxy)(phenoxy)phosphoryl)amino)hexanoate], the EC50 is 12.1 µM in assay [1] (setting [9]), over 5 µM in assay [2] (setting [10]), over 50 µM in assay [3] (setting [11]) and over 50 µM in assay [4] (setting [12]).
With `C[C@H](NP(=O)(N[C@@H](C)C(=O)OCC1CC1)OC[C@@]1(C#N)O[C@@H](c2ccc3c(N)ncnn23)[C@H](O)[C@@H]1O)C(=O)OCC1CC1` [Example 214, ((2R,3S,4R,5S)-5-(4-aminopyrrolo[2,1-f][1,2,4]triazin-7-yl)-2-cyano-3,4-dihydroxytetrahydrofuran-2-yl)methyl bis-cyclopropylmethyl L-alaninate phosphate], the concentration giving a half-maximal response (EC50) in assay [1] (setting [6]) is 2.94 µM; in assay [2] (setting [7]) it was 0.551 µM; in assay [3] (setting [5]) it was 25.8 µM; in assay [4] (setting [8]), over 50 µM.
For `C[C@H](NP(=O)(OC[C@@]1(C#N)O[C@@H](c2ccc3c(N)ncnn23)[C@H](O)[C@@H]1O)Oc1ccccc1)C(=O)OCC1CCN(CC(F)(F)F)CC1` (stereo partly drawn) [Example 31, (1-(2,2,2-trifluoroethyl)piperidin-4-yl)methyl ((((2R,3S,4R,5S)-5-(4-aminopyrrolo[2,1-f][1,2,4]triazin-7-yl)-2-cyano3,4-dihydroxytetrahydrofuran-2-yl)methoxy)(phenoxy)phosphoryl)alaninate], the EC50 was 0.334 µM in assay [1] (setting [9]), 0.258 µM in assay [2] (setting [10]), 2.5 µM in assay [3] (setting [11]) and 96 µM in assay [4] (setting [12]).
The corresponding values for `CCOC(=O)C1(NP(=O)(OC[C@@]2(C#N)O[C@@H](c3ccc4c(N)ncnn34)[C@H](O)[C@@H]2O)Oc2ccccc2)CC1` (mixture of isomers) [Example 106, ethyl 1-(((((2R,3S,4R,5S)-5-(4-aminopyrrolo[2,1-f][1,2,4]triazin-7-yl)-2-cyano-3,4-dihydroxytetrahydrofuran-2-yl)methoxy)(phenoxy)phosphoryl)amino)cyclopropanecarboxylate] are over 42.5 µM, over 5 µM, over 100 µM and over 100 µM.
For `C[C@H](NP(=O)(N[C@@H](C)C(=O)OC1CCCCC1)OC[C@@]1(C#N)O[C@@H](c2ccc3c(N)ncnn23)[C@H](O)[C@@H]1O)C(=O)OC1CCCCC1` [Example 14], the EC50 in assay [1] (setting [6]) is 3.65 µM; in assay [2] (setting [7]), 1.27 µM; in assay [3] (setting [5]) it was 12.4 µM; in assay [4] (setting [8]), over 100 µM.
Consider `C[C@H](NP(=O)(OC[C@@]1(C#N)O[C@@H](c2ccc3c(N)ncnn23)[C@H](O)[C@@H]1O)Oc1ccccc1)C(=O)OC1CCCCCC1` (single isomer, unassigned) [Example 136], for which the EC50 in assay [1] (HEp-2 cells, RSV A2, 4 days) was 2.77 µM; in assay [2] (NHBE cells, RSV A2, 4 days), 0.095 µM; in assay [3] (setting [11]), 0.577 µM; in assay [4] (setting [12]), 51.1 µM.
Take `CCC(CC)COC(=O)[C@H](CC(C)C)NP(=O)(OC[C@@]1(C#N)O[C@@H](c2ccc3c(N)ncnn23)[C@H](O)[C@@H]1O)Oc1ccccc1` (single isomer, unassigned) [Example 129]: the EC50 was 42.9 µM in assay [1] (HEp-2 cells, RSV A2, 4 days); over 5 µM in assay [2] (NHBE cells, RSV A2, 4 days); 41.6 µM in assay [3] (setting [11]); 26.7 µM in assay [4] (setting [12]).
Turning to `C[C@H](NP(=O)(OC[C@@]1(C#N)O[C@@H](c2ccc3c(N)ncnn23)[C@H](O)[C@@H]1O)Oc1ccccc1)C(=O)O[C@H]1CC[C@H](C(F)(F)F)CC1` (stereo partly drawn) [Example 16, trans-4-(trifluoromethyl)cyclohexyl ((((2R,3S,4R,5S)-5-(4-aminopyrrolo[2,1-f][1,2,4]triazin-7-yl)-2-cyano-3,4-dihydroxytetrahydrofuran-2-yl)methoxy)(phenoxy)phosphoryl)-L-alaninate], the EC50 in assay [1] (setting [9]) came out at 1.29 µM; in assay [2] (setting [10]) it was 0.104 µM; in assay [3] (setting [11]) it was 1.31 µM; in assay [4] (setting [12]), 70.8 µM.
